Results published in patent publication US11352391B2, “Compositions for inducing urinary voiding and defecation” (Dignify Therapeutics, LLC, priority 2017, dated 2022).
Where a SMILES comes first, the peptide text is derived from it.

Tests used:
[1] = molecular target: human NK1 Receptor (hNK1R) (Homo sapiens, UniProt P25103); assay: [3H]-septide radioligand competition binding to human recombinant NK1Rs (CHO-hNK1 membranes); details: displacement of 5.0 nM [3H]-septide, CHO-hNK1 membranes; read-out: hNK1 binding Ki
Chain of human NK1 Receptor (hNK1R) (P25103 whole entry): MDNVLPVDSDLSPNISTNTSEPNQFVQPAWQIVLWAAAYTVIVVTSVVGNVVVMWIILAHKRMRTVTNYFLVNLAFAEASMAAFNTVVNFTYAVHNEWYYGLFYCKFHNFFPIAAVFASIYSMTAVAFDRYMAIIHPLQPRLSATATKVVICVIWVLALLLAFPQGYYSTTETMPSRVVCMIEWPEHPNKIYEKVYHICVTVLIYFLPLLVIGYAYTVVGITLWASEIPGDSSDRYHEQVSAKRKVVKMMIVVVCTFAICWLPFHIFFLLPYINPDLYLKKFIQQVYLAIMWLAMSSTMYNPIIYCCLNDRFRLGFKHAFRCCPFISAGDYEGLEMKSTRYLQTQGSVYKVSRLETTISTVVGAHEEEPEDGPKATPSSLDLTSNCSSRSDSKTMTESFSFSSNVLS
Protocol: (§1) After removal of the supernatant the cell pellet was washed and collected by re-suspension in PBS and centrifugation.
(§2) Frozen pellets were thawed and homogenized in 10 volumes (w/v) of membrane preparation buffer (50 mM HEPES pH 7.4, 1 mM EDTA, 50 μg/mL bacitracin and protease inhibitors) using a Polytron Ultraturrax (twice for 15 s per cycle). […] Protein concentration was determined using BioRad Protein Assay (Milan, Italy) with a BSA standard curve.

[2] = molecular target: T1, recombinant hNK2R expressed in CHO cells (Homo sapiens, UniProt P21452); assay: Intracellular calcium mobilization (FLIPR) in CHO-hNK2 cells; format: cell-based
T1 sequence (P21452 1-398): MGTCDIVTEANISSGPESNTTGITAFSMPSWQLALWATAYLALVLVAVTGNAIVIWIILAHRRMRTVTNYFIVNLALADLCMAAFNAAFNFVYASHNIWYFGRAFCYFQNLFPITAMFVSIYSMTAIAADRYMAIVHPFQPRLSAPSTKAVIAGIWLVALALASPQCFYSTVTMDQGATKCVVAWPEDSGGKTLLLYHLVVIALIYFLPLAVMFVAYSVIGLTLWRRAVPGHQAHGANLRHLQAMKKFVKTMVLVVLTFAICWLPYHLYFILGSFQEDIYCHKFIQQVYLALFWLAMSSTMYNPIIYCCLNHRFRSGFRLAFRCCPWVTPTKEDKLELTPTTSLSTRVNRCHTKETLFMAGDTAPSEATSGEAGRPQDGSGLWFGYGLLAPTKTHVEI
Protocol: (§3) CHO-hNK1 and CHO-hNK2 cells were seeded into black walled clear-bottom 384-well plates) at a density of 10,000 and 15,000 cells per well in 50 μL culture media, respectively, and grown overnight at 37° C. in a humidified CO2-incubator. Cells were washed in washing buffer using the EMBLA 384 instrument, leaving 20 μL of buffer per well after the final aspiration. Cells were then incubated at 37° C. with the cytoplasmic Ca2+ indicator Fluo-4 AM (final concentration 1 μM) in assay buffer (20 mM HEPES, 145 mM NaCl, 5 mM KCl, 5.5 mM glucose, 1 mM MgCl2 and 2 mM CaCl2, pH 7.4, 0.05% Pluronic F-127 and 0.1% BSA) containing 2.5 mM probenecid for […] (cell loading). Cells were then washed 3 times in washing buffer (20 mM HEPES, 145 mM NaCl, 5 mM KCl, 5.5 mM glucose, 1 mM MgCl2 and 2 mM CaCl2, pH 7.4 and 2.5 mM probenecid) using the EMBLA 384 instrument, leaving 30 μL of buffer in each well after the last wash. Loaded cell plates were transferred to the FLIPR machine and calcium responses were monitored as described below. A dual read-out FLIPR protocol was used, allowing for characterization of both agonist and antagonist profiles. For quality control, in each compound plate the signal was monitored by evaluating the responses to the reference standards (NKA and Substance P).
(§4) Concentration response curves of compounds were run in duplicate on two different occasions from the same stock solutions. Test solutions were prepared from 10 mM stock solutions in DMSO and 1 μL of each solution was stamped into V-bottom assay plates containing 49 μL assay buffer. The final concentration of DMSO was 0.5% in each well.

[3] = Pharmacokinetics in rat plasma after cassette IV bolus dosing; details: Sprague-Dawley, in vivo, iv
Protocol: The concentrations of compounds (SEQ ID NOS: 1-11) were measured in rat plasma after intravenous (IV) bolus dosing to determine pharmacokinetic profiles of individual compounds.
Animal preparation: In vivo studies were performed in anesthetized adult Sprague Dawley rats. Rats were anesthetized with urethane (1.2-1.4 g/kg subcutaneous injection). Surgical procedures were then performed with the addition of isoflurane anesthesia (0.05-1.5% in 02) as needed. A venous cannula was inserted into the jugular vein for intravenous (IV) administration of compounds.
In vivo dosing and plasma sampling: Compounds were divided into two groups (soluble and insoluble). Each group was dosed as a cassette in which four compounds (100 μg/kg each compound) were combined into a single IV bolus injection to anesthetized adult Sprague-Dawley rats. Soluble compounds were dissolved in saline. Insoluble compounds were dissolved in a 10% ethanol/saline solution. Rats were cassette dosed based on weight using 0.1 mg/mL solutions of individual compounds. Blood samples (700 μL) were collected using a carotid artery cannula into EDTA tubes containing ascorbic acid (final concentration 1%), and plasma was isolated.
Bioanalytical assay: A reversed-phase HPLC with Turbo Ion Spray MS/MS detection method was developed for bioanalysis. Mass spec transition and settings were individually optimized for each compound and then compounds were cassetted for HPLC method development and optimization. [^13C9; ^15N] [Lys5,MeLeu9,Nle10]-NKA(4-10) was used as an internal standard (IS). Analyte-to-IS peak area ratios for individual compounds were used to create linear calibration curves (1-20 ng/mL) using 1/×2 weighted least-squares regression analysis for evaluation of method linearity, precision and accuracy. For plasma concentration measurements, plasma samples were spiked with IS, processed by extraction, and analyzed using LC-MS/MS. Positive (M+H)+ ions for individual compounds and IS were monitored in MRM mode.

[4] = molecular target: T2, human NK2 Receptor (hNK2R) (Homo sapiens, UniProt P21452); assay: [125I]-NKA radioligand competition binding to human recombinant NK2Rs (CHO-hNK2 membranes)
T2 sequence (P21452 1-398): T1 sequence (P21452 1-398)
Protocol: as §1, §2

[5] = molecular target: recombinant hNK1R expressed in CHO cells (Homo sapiens, UniProt P25103); assay: Intracellular calcium mobilization (FLIPR) in CHO-hNK1 cells; format: cell-based; details: calcium mobilization, CHO-hNK1 cells; read-out: hNK1 EC50
Chain of recombinant hNK1R expressed in CHO cells (P25103 whole entry): as the sequence (P25103 whole entry) above
Protocol: as §3, §4

anesthetized dog = assay: Colorectal pressure manometry in anesthetized dog; format: in vivo
Protocol: Animal preparation: Naïve beagle dogs were fasted for 12-24 hours and received a warm water enema the night prior to, and the morning of, the experiment to clear the rectum and lower colon of feces. The day of the experiment, a 20 gauge IV catheter (Terumo Surflo) was placed in the cephalic vein for anesthetic induction (propofol, 10 mg/kg; IV) and delivery of IV fluids (5-10 ml/kg/hr) and compounds. The sedated dog was intubated with a 5-6 Fr tracheal tube and was maintained on 2-3% isoflurane via a ventilator (15-25 breaths/min; tidal volume […]) for the remainder of the experiment.
Bowel contractility: For colorectal pressure manometry, an ˜3 inch balloon catheter was inserted into the rectum and secured to the tail with tape. This catheter was connected via a three-way stopcock to a pressure transducer (UTAH MEDICAL PRODUCTS; DelTran II) for pressure recording. Data were recorded using PowerLab/8SP acquisition system using LabChart software (version 7.3.7; ADINSTRUMENTS, Australia). Arterial pressure, ECG, temperature and blood oxygen saturation (spO2) were monitored throughout the experiment (MEDTRONIC LIFEPAK12). Dogs were recovered in a quiet room under veterinary supervision.

[6] = Saline solubility of heptapeptides; format: physicochemical
Protocol: Heptapeptides A-K shown below in Table 1 (SEQ ID NOs: 1-11) were synthesized according to standard Fmoc-mediated solid-phase techniques and purified under typical C18 reverse-phase conditions.
Compounds D-K were considered to be insoluble in saline (<1 mg/mL).

Ki [1]: 3090 nM
EC50 ([2]; calcium mobilization, CHO-hNK2 cells, read-out: hNK2 EC50): 3 nM
hNK2 selectivity ratio ([2]; ratio of EC50s hNK1R/hNK2R): 26
half-life [3]: 3.3 to 4.7 min
Ki ([4]; displacement of 0.1 nM [125I]-NKA, CHO-hNK2 membranes, read-out: hNK2 binding Ki): 16.4 nM
hNK2 selectivity ratio ([4]; ratio of Kis hNK1R/hNK2R): 188.58
EC50 [5]: 78.2 nM
solubility [6]: < 1000 µg/mL
SMILES: CCCC[C@H](NC(=O)[C@H](CC(C)C)NC(=O)CCNC(=O)[C@@H](NC(=O)[C@H](Cc1ccccc1)NC(=O)[C@H](CCCCN)NC(=O)[C@@H](N)CC(=O)O)C(C)C)C(N)=O [Compound G, Asp-Lys-Phe-Val-(β-Ala)-Leu-Nle-NH2] (HELM PEPTIDE1{D.K.F.V.[bAla].L.[Nle].[am]}$$$$V2.0; N-terminus assumed)
duration of colorectal pressure response (anesthetized dog; IV bolus (B and E 3 μg/kg; G 3, 30 and 66 ug/kg)): approximately 5 minutes
onset of increase in colorectal pressure (anesthetized dog; IV bolus (E 3 μg/kg; G 3, 30 and 66 ug/kg)): ≤ 1 min
